Measurements: patent US20240208949A1, “COMPOSITIONS, FORMULATIONS, AND METHODS FOR HAIR TREATMENT” (Oddity Labs, LLC, priority 2022, published 2024)
Each block holds one molecule with its values, some of them ahead of it.

Legend:
[1] = tested on: human hair follicle dermal papilla cells (hFDPC); assay: Human follicle dermal papilla cell (hFDPC) proliferation, cell viability assay; type: cell-based; conditions: hFDPCs from donors 25-83 years old; vs DMSO control
Description: The ability of a compound or salt of the present disclosure to increase proliferation of human hair follicle dermal papilla cells (hFDPC) was tested using a cell viability assay, such as the Promega CellTiter-Glo® Luminescent Cell Viability Assay, MTT cell proliferation assay (ATCC® 30-1010K), or manual cell counting. The compound or salt was added at various concentrations spanning at least a 2-log range. hFDPCs were derived from multiple donors ranging from 25-83 years old and cultured on tissue-treated plastic using predefined growth media supplemented with 6-bromoindirubin-3′-Oxime (BIO), recombinant bone morphogenetic protein-2 (BMP-2), and basic fibroblast growth factor (FGFβ), a combination previously found to preserve in situ dermal papilla gene signatures. […] In TABLE 12, A represents less than 20% increased proliferation of hFDPCs, B represents a 20-40% increase, and C represents more than a 40% increase in the proliferation of hFDPCs.

[2] = biological target: T1, cytochrome P450 3A4 (CYP3A4) (Homo sapiens, UniProt P08684); assay: P450-Glo CYP3A4 Assay and Screening System; type: in vitro ADME; conditions: 50 or 5 μM
T1 construct: purchased Promega
T1 sequence (P08684 whole entry): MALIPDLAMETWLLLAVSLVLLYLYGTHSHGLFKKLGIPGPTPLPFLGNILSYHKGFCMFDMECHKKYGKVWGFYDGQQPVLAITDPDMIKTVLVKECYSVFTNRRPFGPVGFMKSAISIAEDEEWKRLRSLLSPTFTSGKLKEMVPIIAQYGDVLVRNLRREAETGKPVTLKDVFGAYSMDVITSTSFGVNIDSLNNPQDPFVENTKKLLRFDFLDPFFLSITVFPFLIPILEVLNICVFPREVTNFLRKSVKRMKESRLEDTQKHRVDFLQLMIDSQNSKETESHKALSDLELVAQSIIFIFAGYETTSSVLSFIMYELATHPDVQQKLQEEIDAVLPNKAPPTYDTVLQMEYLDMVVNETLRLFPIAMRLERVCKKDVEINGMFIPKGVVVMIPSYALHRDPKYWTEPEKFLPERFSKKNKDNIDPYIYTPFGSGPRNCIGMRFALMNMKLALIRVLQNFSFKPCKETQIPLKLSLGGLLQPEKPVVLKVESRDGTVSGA
Description: A P450-Glo™ CYP3A4 Assay and Screening System (Promega) was employed to assess the inhibitory potential of the example compounds against CYP3A4 at concentrations of either 50 or 5 μM. […] Vehicle represents 0.1% DMSO and […] is a known cytochrome P450 3A4 inhibitor .

[3] = tested on: primary human follicle dermal papilla cells (hFDPCs); assay: ROS-Glo assay, intracellular reactive oxygen species; type: cell-based; conditions: 50 or 5 μM
Description: A ROS-Glo™ assay (Promega) was employed to assess the production of intracellular reactive oxygen species (ROS) for the example compounds at concentrations of either 50 or 5 μM. […] Vehicle represents 0.1% DMSO and DMNQ represents 2,3-dimethoxy-1,4-naphthalenedione, a known ROS-inducer.

[4] = Structural stability in solvent mixtures at elevated temperature, LC-UV; type: physicochemical; conditions: for Purity (LC-UV) after stirring: 80° C., 2 hrs
Description: Additionally, the ability of a compound or salt of the present disclosure was evaluated at room temperature as well as at 60° C. for varying periods of time (FIG. 1B). The structural stability of compound I-1 was further explored by stirring this compound in 2 different solvent mixtures at elevated temperatures for 2 hours. (TABLE 13). The samples were analyzed by LC-UV after stirring for 2 hrs (FIG. 2).

[5] = Stability on open-air storage, LCMS/HPLC-UV; type: physicochemical
Description: A sample was analyzed for stability using LCMS. In both cases, the peak at 1.25 min was determined to be product I-1, while the impurity at 0.66 min was identified as the hydrolysis product 3-B04, as referenced in Scheme 9b. After analysis, the sample was allowed to stand in open air overnight. […] The purity of the compound in FIG. 7B was analyzed to be 95.3% (254 nm), and in FIG. 7D to be 90.61% (254 nm) after standing overnight in air. […] The compound gradually decomposed into compound 3-B04 and propane sulfonic acid.

[6] = Stability in DMI solution, LCMS/HPLC-UV; type: physicochemical
Description: A sample containing compound I-1 was prepared in 1,3-Dimethyl-2-imidazolidinone (DMI), sealed, and stored at room temperature for 7 days. Another sample containing compound I-1 was prepared in DMI and left open for 8 days. The purity of both samples was assessed using LCMS. […] The purity in FIG. 8B was determined to be 92.9%, and the purity in FIG. 8D was also found to be 92.9%.

[7] = Thermal degradation on distillation, NMR; type: physicochemical; conditions: distillation at 185° C. (after 30 minutes at 160° C.)
Description: Thermal degradation of compound I-1 was evaluated at 160° C. and 185° C. Pure compound I-1 (1.2 g), in the form of a brown oil, was subjected to distillation for 30 minutes at 160° C. When no product was observed, distillation was attempted at 185° C., albeit unsuccessfully.

[8] = Stability in example compositions, HPLC-UV; type: physicochemical; conditions: compositions of TABLE 2-TABLE 11, 8 months at room temperature
Description: Example of composition (TABLE 2-TABLE 11) preserves the structure and inhibits the hydrolysis of compound I-1, even after storage of 8 months at room temperature.

Compound: CSc1nc(-c2ccco2)nn1S(C)(=O)=O [VII-3]
- Increase Proliferation of hFDPCs (%) [1]: C (C represents more than a 40% increase in the proliferation of hFDPCs)

Compound: CCSc1nc(-c2ccco2)nn1S(C)(=O)=O [I-2]
- Increase Proliferation of hFDPCs (%) [1]: C (C represents more than a 40% increase in the proliferation of hFDPCs)

Compound: COCCSc1nc(-c2ccco2)nn1S(C)(=O)=O [I-3]
- Increase Proliferation of hFDPCs (%) [1]: C (C represents more than a 40% increase in the proliferation of hFDPCs)

Compound: CCCS(=O)(=O)n1nc(-c2ccco2)nc1SC [I-4]
- Increase Proliferation of hFDPCs (%) [1]: B (B represents a 20-40% increase)

- Inhibition of CYP3A4 activity [2]: potent inhibitory potential
- Production of intracellular ROS (oxidative stress) [3]: Elevated levels of ROS
Compound: CCCCCS(=O)(=O)n1nc(-c2ccco2)nc1SCCOCCOC [I-5]
- Increase Proliferation of hFDPCs (%) [1]: C (C represents more than a 40% increase in the proliferation of hFDPCs)

- Purity (LC-UV) after stirring ([4]; 0.1% (v/v) HCOOH in H2O/0.1% (v/v) HCOOH in MeCN 1:1): 95%
- Purity (LC-UV) after stirring ([4]; EtOAc/Heptane 1:1): >99%
- Degradation in acidic conditions ([4]; acidic conditions, 2 hrs elevated temperature): minor degradation
- Structural stability in organic solvents ([4]; organic solvents used for straight phase column chromatography, 2 hrs elevated temperature): very stable
- Purity (254 nm) after standing overnight in air ([5]; 24 hours open-air exposure, room temperature): 90.61%
- Purity (254 nm), freshly synthesized material post-workup ([5]; before air exposure (baseline)): 95.3%
- Purity (254 nm) in DMI, left open ([6]; 1,3-Dimethyl-2-imidazolidinone (DMI), open air, 8 days): 92.9%
- Purity (254 nm) in DMI, sealed ([6]; 1,3-Dimethyl-2-imidazolidinone (DMI), sealed, room temperature, 7 days): 92.9%
- Stability in DMI ([6]; even when solution exposed to air): appeared to be stable
- Thermal degradation [7]: slightly decomposing
- Hydrolysis in example composition on storage [8]: minimal hydrolysis
Compound: CCCS(=O)(=O)n1nc(-c2ccco2)nc1SCCOCCOC [I-1]
- Increase Proliferation of hFDPCs (%) [1]: C (C represents more than a 40% increase in the proliferation of hFDPCs)
- Stability on storage in open air ([5]; room temperature, decomposes into 3-B04 and propane sulfonic acid): hydrolyzed upon storage in open air at room temperature

Compound: CCCCCS(=O)(=O)n1nc(-c2ccco2)nc1SCC [I-6]
- Increase Proliferation of hFDPCs (%) [1]: B (B represents a 20-40% increase)
